# According to US9822131B2, “Certain chemical entities, compositions and methods” (Intellikine LLC, priority 2008, dated 2017):
# Legend:
# [1] = system: established type II collagen induced arthritis; experiment: Rat established type II collagen induced arthritis assay; format: in vivo; details: oral
# Method: In order to examine the dose responsive efficacy of the compounds of the present invention in inhibiting the inflammation, cartilage destruction and bone resorption of 7 day established type II collagen induced arthritis in rats, compounds were administered orally daily or twice daily for 6 days.
# Female Lewis rats were anesthetized and given collagen injections prepared and administered as described previously on day 0. On day 6, animals were anesthetized and given a second collagen injection. Caliper measurements of normal (pre-disease) right and left ankle joints were performed on day 9. On days 10-11, arthritis typically occurred and rats were randomized into treatment groups. Randomization was performed after ankle joint swelling was obviously established and there was good evidence of bilateral disease.
# After an animal was selected for enrollment in the study, treatment was initiated by the oral route. Animals were given vehicle, control (Enbrel) or compound doses, twice daily or once daily (BID or QD respectively). Dosing was administered on days 1-6 using a volume of 2.5 ml/kg (BID) or 5 ml/kg (QD) for oral solutions. Rats were weighed on days 1-7 following establishment of arthritis and caliper measurements of ankles taken every day. Final body weights were taken on day 7 and animals were euthanized.
# [2] = system: adjuvant induced arthritis model; experiment: Adjuvant induced arthritis assay; format: in vivo
# Method: Isoflurane-anesthetized Lewis rats (200-250 g) were implanted with an intrathecal (IT) catheter. After a 6 d recovery period, all animals except those that appeared to have sensory or motor abnormalities (fewer than 5% of the total number) were used for experiments. For IT administration, 10 μl of drug or saline followed by 10 μl of isotonic saline was injected through the catheter.
# Lewis rats were immunized at the base of the tail with 0.1 ml of complete Freund's adjuvant (CFA) on day 0 several days after catheter implantation (n=6/group). Drug (e.g. one or more compounds of the present invention or vehicle) treatment was generally started on day 8 and continued daily until day 20. Clinical signs of arthritis generally begin on day 10, and paw swelling was determined every second day by water displacement plethysmometry.
# [3] = system: collagen induced developing arthritis model; experiment: Rat developing type II collagen induced arthritis assay; format: in vivo
# Method: In order to study the effects of the compounds of the present invention on the autoimmune disease arthritis, a collagen induced developing arthritis model was used. Female Lewis rats were given collagen injections at day 0. Bovine type II collagen was prepared as a 4 mg/ml solution in 0.01N acetic acid. Equal volumes of collagen and Freund's incomplete adjuvant were emulsified by hand mixing until a bead of the emulsified material held its form in water. Each rodent received a 300 μl injection of the mixture at each injection time spread over three subcutaneous sites on the back.
# Oral compound administration began on day 0 and continued through day 16 with vehicle (5% NMP, 85% PEG 400, 10% Solutol) or compounds of the present invention in vehicle or control (e.g. methotrexate) at 12 hour intervals daily. Rats were weighed on days 0, 3, 6, 9-17 and caliper measurements of ankles taken on days 9-17. Final body weights were taken, and then the animals were euthanized on day 17. After euthanization, blood was drawn and hind paws and knees were removed. Blood was further processed for pharmacokinetics experiments as well as an anti-type II collagen antibody ELISA assay. Hind paws were weighed and then with the knees preserved in 10% formalin. The paws and knees were subsequently processed for microcopy. Livers, spleen and thymus were also weighed. Sciatic nerves were prepared for histopathology.
# Knee and ankle joints were fixed for 1-2 days and decalcified for 4-5 days. Ankle joints were cut in half longitudinally, knees were cut in half along the frontal plane. Joints were then processed, embedded, sectioned and stained with toluidine blue. Scoring of the joints was done according to the following criteria:
# Percent inhibition of paw weight and AUC was calculated using the following formula: % Inhibition=A−B/A×100 A=Mean Disease Control−Mean Normal B=Mean Treated−Mean Normal
# Balb/c splenic B cells = experiment: B cell activation and proliferation assay (Alamar Blue); format: cell-based; details: Mus musculus, read-out: B cell proliferation EC50 (nM)
# Method: The assay is performed in a 96 well microtiter plate using Alamar Blue reduction. Balb/c splenic B cells are purified over a Ficoll-Paque™ PLUS gradient followed by magnetic cell separation using a MACS B cell Isolation Kit (Miletenyi). Cells are plated in 90 ul at 50,000 cells/well in B Cell Media (RPMI+10% FBS+Penn/Strep+50 uM bME+5 mM HEPES). A compound disclosed herein is diluted in B Cell Media and added in a 10 ul volume. Plates are incubated for 30 min at 37 C and 5% CO2 (0.2% DMSO final concentration). A 50 ul B cell stimulation cocktail is then added containing either 10 ug/ml LPS or 5 ug/ml F(ab′)2 Donkey anti-mouse IgM plus 2 ng/ml recombinant mouse IL4 in B Cell Media. […] A volume of 15 uL of Alamar Blue reagent is added to each well and plates are incubated for 5 hours at 37 C and 5% CO2. Alamar Blue fluoresce is read at 560Ex/590Em, and IC50 or EC50 values are calculated using GraphPad Prism 5.
# basophilic granulocytes = experiment: Basotest assay; format: cell-based; details: heparinized whole blood, dust mite or grass extract allergen
# Method: The baseotest assay is performed using Orpegen Pharma Basotest reagent kit. Heparinized whole blood is pre-incubated with test compound or solvent at 37 C for 20 min. Blood is then incubated with assay kit stimulation buffer (to prime cells for response) followed by allergen (dust mite extract or grass extract) for 20 min. The degranulation process is stopped by incubating the blood samples on ice. The cells are then labeled with anti-IgE-PE to detect basophilic granulocytes, and anti-gp53-FITC to detect gp53 (a glycoprotein expressed on activated basophils). After staining red blood cells are lysed by addition of Lysing Solution. Cells are washed, and analyzed by flow cytometry.
Structure (SMILES),"mean ankle diameter increase over time ([1]; once daily dosage, FIG. 8)","mean ankle diameter increase over time ([1]; twice daily dosage, FIG. 9)",average paw volume increase ([2]; FIG. 10),"toxicity or other adverse reaction as measured by weight loss ([2]; FIG. 11, average weight over time)","ankle histopathology, all categories ([3]; 60 mg/kg, FIG. 4)","serum anti-type II collagen levels ([3]; 10, 20, and 60 mg/kg dosage levels, FIG. 6)","arthritis induced ankle diameter increase over time ([3]; 10, 30, and 60 mg/kg at 12 hour intervals, oral, relative to vehicle or methotrexate control)",knee histopathology ([3]; FIG. 5),"ankle histopathology (inflammation, pannus, cartilage damage, bone resorption) ([3]; oral, 12 hour intervals, FIG. 4)",EC50 (Balb/c splenic B cells) [nM],inhibition of allergen induced activation of basophilic granulocytes (basophilic granulocytes)
CC(=O)Nc1nc2ccc(-c3nn(Cc4cc5cccc(C)c5c(=O)n4-c4ccccc4C)c4ncnc(N)c34)cc2s1 [#53],significant reduction,significant reduction,dose dependent reduction,does not exhibit toxicity or other adverse reaction,statistically significant reduction in all categories,significant reduction,significant reduction,dose dependent reduction,significant reduction in one or more categories,–,–
CC(=O)Nc1nc2ccc(-c3nn(Cc4cc5cccc(C)c5c(=O)n4-c4ccccc4C)c4ncnc(N)c34)cc2s1 [Compound 53],–,–,–,–,–,–,–,–,–,< 100,sub micromolar range
